# Experiments:
# Test in all cases: KINOMEscan kinase binding assay
# [1] = target: T1, 384 kinases from the human genome (Homo sapiens, UniProt Q9UM73); conditions: kinase ALK (Entrez ALK)
# T1 construct: purchased Eurofin/DiscoverX
# Method in brief: (§1)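 Competition binding (KINOMEscan) across 384 human kinases with compound at 10 µM. Ligand binding was expressed relative to DMSO (100%) as the average of duplicates from one experiment. S(10) selectivity score was derived.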
# [2] = target: T2, 384 kinases from the human genome (Homo sapiens, UniProt P15056)
# T2 construct: purchased Eurofin/DiscoverX
# T2 sequence (P15056 whole entry): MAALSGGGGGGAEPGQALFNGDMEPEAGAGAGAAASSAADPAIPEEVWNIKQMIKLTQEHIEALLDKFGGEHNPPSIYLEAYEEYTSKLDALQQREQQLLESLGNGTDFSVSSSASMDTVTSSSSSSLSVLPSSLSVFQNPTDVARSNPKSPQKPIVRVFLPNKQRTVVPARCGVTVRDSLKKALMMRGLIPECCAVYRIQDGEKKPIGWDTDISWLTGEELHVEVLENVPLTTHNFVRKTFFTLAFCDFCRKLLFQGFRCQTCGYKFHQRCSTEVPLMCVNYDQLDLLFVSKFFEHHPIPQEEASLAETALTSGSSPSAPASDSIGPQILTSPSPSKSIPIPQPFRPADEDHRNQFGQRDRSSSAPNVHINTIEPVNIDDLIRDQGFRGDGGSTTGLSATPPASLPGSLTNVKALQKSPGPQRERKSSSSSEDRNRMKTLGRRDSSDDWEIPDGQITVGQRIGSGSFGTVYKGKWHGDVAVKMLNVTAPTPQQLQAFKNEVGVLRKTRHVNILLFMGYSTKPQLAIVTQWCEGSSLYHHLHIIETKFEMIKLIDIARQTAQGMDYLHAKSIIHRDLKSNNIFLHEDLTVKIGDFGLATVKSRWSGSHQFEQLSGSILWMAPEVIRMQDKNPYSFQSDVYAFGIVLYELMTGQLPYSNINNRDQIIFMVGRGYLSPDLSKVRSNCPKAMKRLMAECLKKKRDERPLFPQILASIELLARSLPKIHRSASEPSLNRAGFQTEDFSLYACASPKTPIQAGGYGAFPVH
# Method in brief: as §1
# [3] = target: T3, 384 kinases from the human genome (Homo sapiens, UniProt O60285); conditions: kinase ARK5 (Entrez NUAK1)
# T3 construct: purchased Eurofin/DiscoverX
# Method in brief: as §1
# [4] = target: T4, 384 kinases from the human genome (Homo sapiens, UniProt Q13546); conditions: kinase RIPK1 (Entrez RIPK1)
# T4 construct: purchased Eurofin/DiscoverX
# T4 sequence (Q13546 whole entry): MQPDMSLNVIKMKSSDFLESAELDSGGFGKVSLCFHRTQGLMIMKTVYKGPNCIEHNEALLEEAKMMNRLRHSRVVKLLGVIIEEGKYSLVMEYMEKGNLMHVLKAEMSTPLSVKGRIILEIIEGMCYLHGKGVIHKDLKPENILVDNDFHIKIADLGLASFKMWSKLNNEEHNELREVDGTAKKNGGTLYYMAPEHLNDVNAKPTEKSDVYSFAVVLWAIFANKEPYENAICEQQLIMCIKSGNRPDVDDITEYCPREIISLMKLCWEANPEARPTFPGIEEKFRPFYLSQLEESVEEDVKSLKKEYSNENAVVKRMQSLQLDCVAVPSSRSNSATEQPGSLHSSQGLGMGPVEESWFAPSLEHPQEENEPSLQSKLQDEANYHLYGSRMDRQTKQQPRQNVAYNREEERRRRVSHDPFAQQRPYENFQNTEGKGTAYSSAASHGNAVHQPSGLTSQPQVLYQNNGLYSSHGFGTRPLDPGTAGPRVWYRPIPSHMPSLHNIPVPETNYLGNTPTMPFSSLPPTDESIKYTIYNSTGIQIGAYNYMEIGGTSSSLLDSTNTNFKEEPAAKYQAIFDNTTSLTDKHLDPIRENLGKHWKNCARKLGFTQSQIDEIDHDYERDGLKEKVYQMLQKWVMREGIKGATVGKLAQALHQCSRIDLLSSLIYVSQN
# Method in brief: as §1
# [5] = target: T5, 384 kinases from the human genome (Homo sapiens, UniProt Q96PN8); conditions: kinase TSSK3 (Entrez TSSK3)
# T5 construct: purchased Eurofin/DiscoverX
# Method in brief: as §1
# [6] = target: T6, 384 kinases from the human genome (Homo sapiens, UniProt P54760); conditions: kinase EPHB4 (Entrez EPHB4)
# T6 construct: purchased Eurofin/DiscoverX
# Method in brief: as §1
# [7] = target: T7, 384 kinases from the human genome (Homo sapiens, UniProt P29320); conditions: kinase EPHA3 (Entrez EPHA3)
# T7 construct: purchased Eurofin/DiscoverX
# Method in brief: as §1
# [8] = target: T8, 384 kinases from the human genome (Homo sapiens, UniProt O43318); conditions: kinase TAK1 (Entrez MAP3K7)
# T8 construct: purchased Eurofin/DiscoverX
# Method in brief: as §1
# [9] = target: T9, 384 kinases from the human genome (Homo sapiens, UniProt O60331); conditions: kinase PIP5K1C (Entrez PIP5K1C)
# T9 construct: purchased Eurofin/DiscoverX
# T9 sequence (O60331 whole entry): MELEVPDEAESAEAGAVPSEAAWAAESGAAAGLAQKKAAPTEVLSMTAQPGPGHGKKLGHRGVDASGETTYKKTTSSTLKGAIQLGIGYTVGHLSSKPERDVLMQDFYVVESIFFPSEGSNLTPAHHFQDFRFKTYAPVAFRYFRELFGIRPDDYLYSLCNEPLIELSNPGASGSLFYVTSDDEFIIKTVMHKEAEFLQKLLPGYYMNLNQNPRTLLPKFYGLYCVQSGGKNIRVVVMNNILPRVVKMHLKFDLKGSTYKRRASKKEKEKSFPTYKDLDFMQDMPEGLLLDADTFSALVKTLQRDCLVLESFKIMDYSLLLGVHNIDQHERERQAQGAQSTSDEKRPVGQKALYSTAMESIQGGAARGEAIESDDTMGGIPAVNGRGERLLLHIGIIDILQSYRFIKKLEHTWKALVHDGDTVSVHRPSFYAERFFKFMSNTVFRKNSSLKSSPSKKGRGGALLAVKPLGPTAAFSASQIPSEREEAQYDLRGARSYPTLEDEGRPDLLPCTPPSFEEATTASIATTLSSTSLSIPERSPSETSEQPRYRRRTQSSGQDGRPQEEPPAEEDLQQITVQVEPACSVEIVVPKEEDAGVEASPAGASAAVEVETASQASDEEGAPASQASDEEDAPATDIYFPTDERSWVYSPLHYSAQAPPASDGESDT
# Method in brief: as §1
# [10] = target: T10, 384 kinases from the human genome (Homo sapiens, UniProt P06239); conditions: kinase LCK (Entrez LCK)
# T10 construct: purchased Eurofin/DiscoverX
# Method in brief: as §1
# [11] = target: T11, 384 kinases from the human genome (Homo sapiens, UniProt Q92630); conditions: kinase DYRK2 (Entrez DYRK2)
# T11 construct: purchased Eurofin/DiscoverX
# Method in brief: as §1
# [12] = target: T12, 384 kinases from the human genome (Homo sapiens, UniProt Q8N752); conditions: kinase CSNK1A1L (Entrez CSNK1A1L)
# T12 construct: purchased Eurofin/DiscoverX
# Method in brief: as §1
# [13] = target: T13, 384 kinases from the human genome (Homo sapiens, UniProt O00444); conditions: kinase PLK4 (Entrez PLK4)
# T13 construct: purchased Eurofin/DiscoverX
# Method in brief: as §1
# [14] = target: T14, 384 kinases from the human genome (Homo sapiens, UniProt O75385); conditions: kinase ULK1 (Entrez ULK1)
# T14 construct: purchased Eurofin/DiscoverX
# T14 sequence (O75385 whole entry): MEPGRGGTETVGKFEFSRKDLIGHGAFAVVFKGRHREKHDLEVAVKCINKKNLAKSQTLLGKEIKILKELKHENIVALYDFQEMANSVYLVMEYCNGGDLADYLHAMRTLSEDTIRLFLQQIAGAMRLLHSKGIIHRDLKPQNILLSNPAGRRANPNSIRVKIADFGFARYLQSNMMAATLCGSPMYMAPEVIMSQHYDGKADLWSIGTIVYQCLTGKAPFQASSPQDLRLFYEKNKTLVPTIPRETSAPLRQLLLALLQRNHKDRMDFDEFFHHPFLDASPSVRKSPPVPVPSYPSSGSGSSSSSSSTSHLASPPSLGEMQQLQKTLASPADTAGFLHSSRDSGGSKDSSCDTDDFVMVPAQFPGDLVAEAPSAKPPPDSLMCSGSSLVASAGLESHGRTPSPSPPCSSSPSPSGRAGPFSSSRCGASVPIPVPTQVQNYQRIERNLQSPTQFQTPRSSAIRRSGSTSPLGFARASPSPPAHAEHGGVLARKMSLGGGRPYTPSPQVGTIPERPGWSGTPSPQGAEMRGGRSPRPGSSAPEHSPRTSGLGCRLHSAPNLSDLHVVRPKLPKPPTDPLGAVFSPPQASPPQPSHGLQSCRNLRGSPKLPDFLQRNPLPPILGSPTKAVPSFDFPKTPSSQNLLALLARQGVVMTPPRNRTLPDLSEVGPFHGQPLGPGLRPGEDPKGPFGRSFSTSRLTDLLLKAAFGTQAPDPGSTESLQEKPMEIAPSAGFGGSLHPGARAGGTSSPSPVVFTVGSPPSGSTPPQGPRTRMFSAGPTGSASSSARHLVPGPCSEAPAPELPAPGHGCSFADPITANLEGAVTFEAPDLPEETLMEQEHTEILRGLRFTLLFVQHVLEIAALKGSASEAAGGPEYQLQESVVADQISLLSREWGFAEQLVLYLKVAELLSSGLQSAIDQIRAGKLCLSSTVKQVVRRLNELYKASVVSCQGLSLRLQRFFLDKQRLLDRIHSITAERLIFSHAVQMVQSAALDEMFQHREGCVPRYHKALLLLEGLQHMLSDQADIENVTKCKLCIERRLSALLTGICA
# Method in brief: as §1
# [15] = target: T15, 384 kinases from the human genome (Homo sapiens, UniProt P54756); conditions: kinase EPHA5 (Entrez EPHA5)
# T15 construct: purchased Eurofin/DiscoverX
# Method in brief: as §1
# [16] = target: T16, 384 kinases from the human genome (Homo sapiens, UniProt Q9NRM7); conditions: kinase LATS2 (Entrez LATS2)
# T16 construct: purchased Eurofin/DiscoverX
# T16 sequence (Q9NRM7 whole entry): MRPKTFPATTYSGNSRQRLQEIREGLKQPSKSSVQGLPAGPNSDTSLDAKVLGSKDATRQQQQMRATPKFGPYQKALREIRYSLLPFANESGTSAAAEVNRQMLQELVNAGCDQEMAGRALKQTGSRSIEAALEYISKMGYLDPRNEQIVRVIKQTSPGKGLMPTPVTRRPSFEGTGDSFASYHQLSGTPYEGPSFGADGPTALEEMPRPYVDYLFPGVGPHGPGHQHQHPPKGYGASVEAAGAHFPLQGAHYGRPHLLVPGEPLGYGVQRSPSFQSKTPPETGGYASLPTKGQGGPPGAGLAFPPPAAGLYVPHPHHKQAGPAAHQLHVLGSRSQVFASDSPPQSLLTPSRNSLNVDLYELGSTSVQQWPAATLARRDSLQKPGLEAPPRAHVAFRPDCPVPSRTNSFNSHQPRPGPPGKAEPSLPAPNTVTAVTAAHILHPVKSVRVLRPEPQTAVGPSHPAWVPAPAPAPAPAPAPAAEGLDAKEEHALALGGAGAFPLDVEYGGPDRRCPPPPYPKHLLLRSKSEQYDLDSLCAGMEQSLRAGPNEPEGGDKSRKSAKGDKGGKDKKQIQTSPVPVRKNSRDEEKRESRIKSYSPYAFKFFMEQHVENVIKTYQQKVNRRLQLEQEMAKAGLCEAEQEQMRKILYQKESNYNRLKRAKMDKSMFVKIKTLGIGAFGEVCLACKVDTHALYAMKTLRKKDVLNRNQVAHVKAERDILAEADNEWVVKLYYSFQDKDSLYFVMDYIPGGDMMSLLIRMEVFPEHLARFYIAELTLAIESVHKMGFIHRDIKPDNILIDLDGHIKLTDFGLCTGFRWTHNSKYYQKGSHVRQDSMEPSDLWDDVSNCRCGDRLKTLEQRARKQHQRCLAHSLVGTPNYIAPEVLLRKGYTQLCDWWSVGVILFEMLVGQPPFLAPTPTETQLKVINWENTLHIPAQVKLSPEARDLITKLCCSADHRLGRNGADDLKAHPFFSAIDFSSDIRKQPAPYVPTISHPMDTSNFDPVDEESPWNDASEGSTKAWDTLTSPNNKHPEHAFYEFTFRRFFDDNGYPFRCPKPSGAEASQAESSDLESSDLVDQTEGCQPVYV
# Method in brief: as §1
# [17] = target: T17, 384 kinases from the human genome (Homo sapiens, UniProt Q16512); conditions: kinase PKN1 (Entrez PKN1)
# T17 construct: purchased Eurofin/DiscoverX
# Method in brief: as §1
# [18] = target: T18, 384 kinases from the human genome (Homo sapiens, UniProt P43405); conditions: kinase SYK (Entrez SYK)
# T18 construct: purchased Eurofin/DiscoverX
# Method in brief: as §1
# [19] = target: T19, 384 kinases from the human genome (Homo sapiens, UniProt P51817); conditions: kinase PRKX (Entrez PRKX)
# T19 construct: purchased Eurofin/DiscoverX
# Method in brief: as §1
# [20] = target: T20, 384 kinases from the human genome (Homo sapiens, UniProt Q9P0L2); conditions: kinase MARK1 (Entrez MARK1)
# T20 construct: purchased Eurofin/DiscoverX
# Method in brief: as §1
# [21] = target: T21, 384 kinases from the human genome (Homo sapiens, UniProt P50750); conditions: kinase CDK9 (Entrez CDK9)
# T21 construct: purchased Eurofin/DiscoverX
# Method in brief: as §1
# [22] = target: T22, 384 kinases from the human genome (Homo sapiens, UniProt Q9NRP7); conditions: kinase STK36 (Entrez STK36)
# T22 construct: purchased Eurofin/DiscoverX
# Method in brief: as §1
# [23] = target: T23, 384 kinases from the human genome (Homo sapiens, UniProt O95747); conditions: kinase OSR1 (Entrez OXSR1)
# T23 construct: purchased Eurofin/DiscoverX
# Method in brief: as §1
# [24] = target: T24, 384 kinases from the human genome (Homo sapiens, UniProt Q9HBH9); conditions: kinase MKNK2 (Entrez MKNK2)
# T24 construct: purchased Eurofin/DiscoverX
# Method in brief: as §1
# [25] = target: T25, 384 kinases from the human genome (Homo sapiens, UniProt Q9UPZ9); conditions: kinase ICK (Entrez ICK)
# T25 construct: purchased Eurofin/DiscoverX
# T25 sequence (Q9UPZ9 whole entry): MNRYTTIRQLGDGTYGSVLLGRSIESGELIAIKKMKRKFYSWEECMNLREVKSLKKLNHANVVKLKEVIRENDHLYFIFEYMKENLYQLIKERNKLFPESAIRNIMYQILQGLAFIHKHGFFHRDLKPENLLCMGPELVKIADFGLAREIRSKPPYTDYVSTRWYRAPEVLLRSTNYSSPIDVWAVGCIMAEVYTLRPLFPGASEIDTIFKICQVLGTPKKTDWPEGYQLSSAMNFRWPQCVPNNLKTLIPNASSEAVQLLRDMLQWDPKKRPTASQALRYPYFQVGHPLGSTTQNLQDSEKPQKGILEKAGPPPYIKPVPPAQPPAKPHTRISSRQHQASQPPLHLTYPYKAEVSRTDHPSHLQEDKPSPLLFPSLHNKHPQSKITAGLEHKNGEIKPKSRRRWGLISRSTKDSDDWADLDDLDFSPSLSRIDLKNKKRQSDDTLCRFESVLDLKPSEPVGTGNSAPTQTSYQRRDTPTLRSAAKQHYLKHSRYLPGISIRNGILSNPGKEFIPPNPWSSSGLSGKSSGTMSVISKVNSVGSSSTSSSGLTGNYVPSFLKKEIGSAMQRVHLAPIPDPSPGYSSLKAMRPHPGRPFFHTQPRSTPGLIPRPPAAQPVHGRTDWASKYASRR
# Method in brief: as §1
# [26] = target: T26, 384 kinases from the human genome (Homo sapiens, UniProt Q8TF76); conditions: kinase HASPIN (Entrez GSG2)
# T26 construct: purchased Eurofin/DiscoverX
# Method in brief: as §1
smiles,measurement,setting,value
CC(C)C(=O)N1CCN(c2ccc(NC(=O)c3cc4ccccc4o3)cc2Cl)CC1 [Compound 21],Percent Control,[1],89%
same,binding to BRAF,[2]; 10 µM of 21,failed to bind
same,Percent Control,[2]; kinase BRAF (Entrez BRAF),93%
same,Percent Control,[3],97%
same,Percent Control,[4],76%
same,Percent Control,[5],100%
same,Percent Control,[6],77%
same,Percent Control,[7],91%
same,Percent Control,[8],83%
same,Percent Control,[9],100%
same,Percent Control,[10],97%
same,Percent Control,[11],94%
same,Percent Control,[12],98%
same,Percent Control,[13],89%
same,Percent Control,[14],97%
same,Percent Control,[15],100%
same,Percent Control,[16],98%
same,Percent Control,[17],94%
same,Percent Control,[18],98%
same,Percent Control,[19],100%
same,Percent Control,[20],93%
same,Percent Control,[21],99%
same,Percent Control,[22],88%
same,Percent Control,[23],95%
same,Percent Control,[24],97%
same,Percent Control,[25],81%
same,Percent Control,[26],98%

# Source: paper PMC8333425, “Discovery of a dual Ras and ARF6 inhibitor from a GPCR endocytosis screen” (Nature Communications, 2021)
